This is an account of results in patent EP3964497A1, “SUBSTITUTED VICINAL DIAMINE COMPOUNDS AND THEIR USE IN THE TREATMENT, AMELIORATION OR PREVENTION OF PAIN” (priority 2020, dated 2022).

Assay [1] addresses T1, δOR (Homo sapiens, UniProt P41143).
T1 construct: expressed in transfected cells; host or cells: HEK 293T cells, transient transfection, membrane preparation
As to the kind of experiment: competitive radioligand binding with [3H]diprenorphine, membranes of transfected HEK 293T cells. On the procedure:
(§1) To verify the subtype selectivity of the described compounds for µOR over δOP and κOR, respectively, the binding affinities of the described examples to the different human opioid receptors in an in-vitro test system were measured.
(§2) For the determination of receptor binding affinity competitive radioligand binding experiments were performed as described in literature (H. Huebner, C. Haubmann, W. Utz, P. Gmeiner, J. Med. Chem., 2000, 43, 756-762). In brief, HEK 293T cells were transiently transfected with the cDNAs coding for the human opioid receptor subtypes µOR, δOR, and kOR, respectively, using a solution of polyethylenimine in PBS (PEI, linear, 25 kDa, Polysciences) as transfection reagent at a 3:1 PEI to cDNA ratio (I. Fish, A. Stoessel, K. Eitel, C. Valant, S. Albold, H. Huebner, D. Moeller, M.J. Clark, R.K. Sunahara, A. Christopoulos, B.K. Shoichet, P. Gmeiner, J. Med. Chem., 2017, 60, 9239-9250). After preparation of membranes, radioligand displacement assays were run in 96-well format at a final volume of 200 µL in binding buffer (50 mM Tris-HCI, 1 mM EDTA, 5 mM MgCl2, 100 µg/mL bacitracin, 5 µg/mL soybean trypsin inhibitor, pH 7.4) with the radioligand [^3H]diprenorphine (specific activity = 31 Ci/mmol) at a final concentration of 0.20-0.30 nM. […] Unspecific binding was determined in the presence of 10 µM of the naloxone. Protein concentrations were determined employing the method of Lowry with bovine serum albumin as standard (O.H. Lowry, N.J. Rosebrough, A.L. Farr, R.J. Randall, J. Biol. Chem., 1951, 193, 265-275). The resulting competition curves of the receptor binding experiments were analyzed by nonlinear regression. The data were initially fit using a sigmoid model to provide IC50 values, which were subsequently transformed to Ki values according to the equation of Cheng and Prusoff (Y.-C. Cheng, W. H. Prusoff, Biochem. Pharmacol., 1973, 22, 3099-3108). Three to seven experiments per compound were performed, with each concentration in triplicate.

The target of assay [2] is T2, µOR (Homo sapiens, UniProt P35372). The experiment in a line: G-protein mediated signaling, IP1 accumulation assay (HTRF) in HEK-293T cells with hybrid G-protein Gαqi. The format is cell-based. The arrangement: expressed in transfected cells; host or cells: HEK-293T cells, transient transfection. As to conditions: for Emax: HEK-293T, read-out: G-protein signaling Emax. How it is done: (§3) Functionally selective drugs, which are biased towards Gi protein activation over β-arrestin signaling at the µOR are indicated to show an improved side effect profile. Thus, the characterization of the functional properties of the described examples at the µOR were performed by determination of the ligand stimulated G-protein related signaling and β-arrestin recruitment applying cell based in-vitro test systems. Full and partial agonists as well as antagonists for G protein related signaling were identified.
The determination of G-protein stimulated µOR activation was measured applying an IP1 accumulation assay as described previously (J. Kruell, S.K. Fehler, L. Hofmann, N. Nebel, S. Maschauer, O. Prante, P. Gmeiner, H. Lanig, H. Huebner, M.R. Heinrich. ChemMedChem 2020, 15, 1175-1186. C. Gentzsch, K. Seier, A. Drakopoulos, M.-L. Jobin, Y. Lanoiselee, Z. Koszegi, D. Maurel, R. Sounier, H. Huebner, P. Gmeiner, S. Granier, D. Calebiro, M. Decker. Ang. Chem. Int. Ed. 2020, 59, 2-9). In brief, HEK-293T cells were grown to confluence of approximately 70% and transiently transfected with the cDNA of the human µOR receptor and the hybrid G-protein Gαqi. After one day cells were seeded into 384-well microplates. For testing cells were incubated with test compounds (final range of concentration from 1 pM up to 10 µM) for 180 min at 37 °C followed by addition of detection reagents. Time resolved fluorescence resonance energy transfer (HTRF) was determined using a microplate reader. Each compound was tested in duplicates in 3-9 individual experiments in comparison to the reference compound DAMGO. The resulting dose response curves were analyzed by nonlinear regression using the algorithms in PRISM 6.0 (GraphPad software, San Diego, CA), fitted with a sigmoid model and normalized to basal activity (0 %) and the maximal effect caused by the reference full agonist DAMGO (100 %).
(§4) In the above table, the numbers indicate mean EC50 values in nM and Emax values relative to the full effect of reference agonist DAMGO [=100%], respectively and are derived from 3-9 individual experiments for G-protein signaling and 3-8 tests for arrestin recruitment. ND = not determined.

The target in assay [3] is T3, κOR (Homo sapiens, UniProt P41145).
T3 construct: expressed in transfected cells; host or cells: HEK 293T cells, transient transfection, membrane preparation
As to the kind of experiment: competitive radioligand binding with [3H]diprenorphine, membranes of transfected HEK 293T cells. On the procedure:
as §1
After preparation of membranes, radioligand displacement assays were run in 96-well format at a final volume of 200 µL in binding buffer (50 mM Tris-HCI, 1 mM EDTA, 5 mM MgCl2, 100 µg/mL bacitracin, 5 µg/mL soybean trypsin inhibitor, pH 7.4) with the radioligand [^3H]diprenorphine (specific activity = 31 Ci/mmol) at a final concentration of 0.20-0.30 nM. […] Unspecific binding was determined in the presence of 10 µM of the naloxone. […] The resulting competition curves of the receptor binding experiments were analyzed by nonlinear regression. […] Three to seven experiments per compound were performed, with each concentration in triplicate.

Assay [4] has as its target T2, µOR. The description is as above. Also on record: expressed in transfected cells; host or cells: HEK 293T cells, transient transfection, membrane preparation. On the procedure: as §1, §2
For assay [5], the target named is T2, µOR. The experiment in a line: β-arrestin-2 recruitment, enzyme-fragment complementation assay in HEK-293 cells. The note with it: for Emax: HEK293, relative to the full effect of reference agonist DAMGO [=100%]; for β-arrestin recruitment EC50: mean of 3-8 tests, 90 min incubation, CBA = could not be analyzed (no dose-response curve). The arrangement: expressed in transfected cells; host or cells: HEK-293 cells stably expressing EA-tagged β-arrestin-2, transiently transfected with µOR-PK1. The format is cell-based. How it is done:
as §3
Measurement of β-arrestin-2 recruitment was done applying an enzyme-fragment complementation assay as described previously (C. Gentzsch, K. Seier, A. Drakopoulos, M.-L. Jobin, Y. Lanoiselee, Z. Koszegi, D. Maurel, R. Sounier, H. Huebner, P. Gmeiner, S. Granier, D. Calebiro, M. Decker. Ang. Chem. Int. Ed. 2020, 59, 2-9. J. Hellmann, M. Drabek, J. Yin, J. Gunera, T. Proell, F. Kraus, C.J. Langmead, H. Huebner, D. Weikert, P. Kolb, D.M. Rosenbaum, P. Gmeiner. PNAS 2020, 117, 18059-18067). In brief, HEK-293 cells stably expressing the enzyme acceptor (EA) tagged β-arrestin-2 fusion protein were transiently co-transfected with the ProLink tagged µOR-PK1 After 24 h cells were transferred into 384-well microplates and cultured for further 24 h. To start arrestin recruitment compounds were added to the cells to get a final concentration in a range of 10 pM to 100 µM. After incubation for 90 min reaction was stopped by addition of detection mix. Chemiluminescence was determined in duplicates (3-8 individual experiments for each compound in comparison to the reference agonist DAMGO). Data analysis was done as described above.
as §4

Where [6] appears, read: radioligand [3H]diprenorphine, number in brackets = number of experiments, read-out: mean Ki value κOR.
The mark [7] stands for this setting: radioligand [3H]diprenorphine, number in brackets = number of experiments, read-out: mean Ki value δOR.

Structures are written as SMILES. Like-named read-outs stand apart in the source and are kept apart here. A value given as a limit tells only on which side of the number the result lay.

In the case of `CN(C)[C@H](CNC(=O)C=Cc1ccccc1)Cc1ccc(O)cc1` (stereo in doubt) [Example 1, (S)-N-(2-(Dimethylamino)-3-(4-hydroxyphenyl)propyl)cinnamamide], the Ki came out at 25 nM in assay [1], 120 nM in assay [3] (setting [6]) and 13 nM in assay [4]. In assay [1] (statement in text referring to the radioligand binding table), the “binding to δOR (in words)” value was “high affinity”. In assay [2], this compound gave an EC50 of 7 nM. Moreover, the results for the Emax in assay [2] and in assay [5] were 63% and < 5%, respectively. Further, the “β-arrestin recruitment EC50” value in assay [5] was “CBA”.
Consider `NC(=O)c1ccc(C[C@H](N)CNC(=O)/C=C/c2cccc(C(F)(F)F)c2)cc1` [Example 14, (S,E)-4-(2-Amino-3-(3-(3-(trifluoromethyl)phenyl)acrylamido)propyl)benzamide formiate], for which the Ki in assay [1] turned out to be 2900 nM; in assay [3], 5600 nM; in assay [4], 460 nM. Besides, the Emax was 75% in assay [2] and < 5% in assay [5]. Besides, in assay [2] (mean of 3-9 experiments, 180 min at 37 °C, CBA = could not be analyzed (no dose-response curve), read-out: G-protein signaling EC50), the EC50 was 2200 nM. Also, in assay [5], the “β-arrestin recruitment EC50” value is “CBA”.
With `CN(C)[C@H](CNC(=O)/C=C/c1ccccc1C(F)(F)F)Cc1ccc(O)cc1` [Example 7, (S,E)-N-(2-(Dimethylamino)-3-(4-hydroxyphenyl)propyl)-3-(2-(trifluoromethyl)phenyl)acrylamide], the Ki in assay [1] (setting [7]) came to 180 nM; in assay [3] (setting [6]), 140 nM; in assay [4], 28 nM. Also, a half-maximal effect in assay [2] (EC50) was put at 13 nM. Also, the Emax in assay [2] is 44%; in assay [5], < 5%. The “β-arrestin recruitment EC50” value in assay [5] is on record as “CBA”.
As to `C/C(=C\C(=O)NC[C@H](Cc1ccc(O)cc1)N(C)C)c1ccccc1` [Example 3, (S,E)-N-(2-(Dimethylamino)-3-(4-hydroxyphenyl)propyl)-3-phenylbut-2-enamide], the Ki worked out at 120 nM in assay [1] (setting [7]), 120 nM in assay [3] (setting [6]) and 28 nM in assay [4]. In assay [2], the EC50 came to 11 nM. The Emax was 76% in assay [2] and < 5% in assay [5]. The “β-arrestin recruitment EC50” value in assay [5] was “CBA”.
As to `CN(C)[C@H](CNC(=O)/C=C/c1cccc(C(F)(F)F)c1)Cc1ccc(O)cc1` [Example 8, (S,E)-N-(2-(Dimethylamino)-3-(4-hydroxyphenyl)propyl)-3-(3-(trifluoromethyl)phenyl)acrylamide formiate], the Ki in assay [1] is 120 nM; in assay [3], 580 nM; in assay [4] it was 30 nM. This compound gave an EC50 in assay [2] of 15 nM. The Emax is 100% in assay [2] and < 5% in assay [5]. The “β-arrestin recruitment EC50” value in assay [5] is on record as “CBA”.
Turning to `CN(C)[C@H](CNC(=O)C#Cc1ccccc1)Cc1ccc(O)cc1` [Example 2, (S)-N-(2-(Dimethylamino)-3-(4-hydroxyphenyl)propyl)-3-phenylpropiolamide], the Ki amounted to 140 nM in assay [1] (setting [7]), 230 nM in assay [3] (setting [6]) and 18 nM in assay [4]. The same compound displayed an EC50 in assay [2] of 22 nM. For the same compound, the results for the Emax in assay [2] and in assay [5] were 42% and < 5%, respectively. Further, in assay [5], the “β-arrestin recruitment EC50” value was “CBA”.
`C/C(=C\c1ccccc1)C(=O)NC[C@H](Cc1ccc(O)cc1)N(C)C` [Example 4, (S,E)-N-(2-(Dimethylamino)-3-(4-hydroxyphenyl)propyl)-2-methyl-3-phenylacrylamide]: the Ki in assay [1] is 49 nM; in assay [3] (setting [6]), 110 nM; in assay [4] it was 46 nM. It took 17 nM to reach a half-maximal effect in assay [2] (EC50). Further, the Emax is 62% in assay [2] and < 5% in assay [5]. Besides, the “β-arrestin recruitment EC50” value in assay [5] is listed as “CBA”.
For the compound `CN(C)[C@H](CNC(=O)/C=C/c1cccc2ccccc12)Cc1ccc(C(N)=O)cc1` [Example 18, (S,E)-4-(2-(Dimethylamino)-3-(3-(naphthalen-1-yl)acrylamido)propyl)benzamide formiate], the Ki in assay [1] was found to be 130 nM; in assay [3], 200 nM; in assay [4], 6.2 nM. Moreover, the EC50 was determined as 9.8 nM in assay [2] and 120 nM in assay [5]. Besides, the Emax stood at 92% in assay [2] and 4% in assay [5].
On to `CN(C)[C@H](CNC(=O)/C=C/c1cccc(C(F)(F)F)c1)Cc1ccc(C(N)=O)cc1` [Example 15, (S,E)-4-(2-(Dimethylamino)-3-(3-(3-(trifluoromethyl)phenyl)acrylamido)propyl)benzamide formiate], for which the Ki in assay [1] worked out at 55 nM; in assay [3], 450 nM; in assay [4], 6.7 nM. The values for the concentration giving a half-maximal response (EC50) in assay [2] and in assay [5] were 6.3 nM and 130 nM, respectively. For the same compound, the figures for the Emax in assay [2] and in assay [5] were 95% and 5%, respectively.
